Test results reported in US5278186A, “Chromene derivatives, their production and use” (Takeda Chemical Industries, Ltd., priority 1990, dated 1994).

target: T1, Acyl-CoA : cholesterol acyltransferase (ACAT) (Rattus norvegicus, UniProt Q7TQM4); experiment: Acyl-CoA : cholesterol acyltransferase (ACAT) inhibitory activity; type: biochemical; conditions: 10^-6 M; mucosal microsome fraction of small intestine of male 6-week old fasted Sprague-Dawley rats; labeled cholesterol ester from [1^14 C] oleoyl-CoA; read-out: ACAT Inhibition Rate (%) 10^-6 M
T1 construct: from the mucosal microsome fraction of the small intestine; from tissue; host or cells: small intestine mucosa (microsome fraction), Sprague-Dawley rat
T1 sequence (Q7TQM4 1-524): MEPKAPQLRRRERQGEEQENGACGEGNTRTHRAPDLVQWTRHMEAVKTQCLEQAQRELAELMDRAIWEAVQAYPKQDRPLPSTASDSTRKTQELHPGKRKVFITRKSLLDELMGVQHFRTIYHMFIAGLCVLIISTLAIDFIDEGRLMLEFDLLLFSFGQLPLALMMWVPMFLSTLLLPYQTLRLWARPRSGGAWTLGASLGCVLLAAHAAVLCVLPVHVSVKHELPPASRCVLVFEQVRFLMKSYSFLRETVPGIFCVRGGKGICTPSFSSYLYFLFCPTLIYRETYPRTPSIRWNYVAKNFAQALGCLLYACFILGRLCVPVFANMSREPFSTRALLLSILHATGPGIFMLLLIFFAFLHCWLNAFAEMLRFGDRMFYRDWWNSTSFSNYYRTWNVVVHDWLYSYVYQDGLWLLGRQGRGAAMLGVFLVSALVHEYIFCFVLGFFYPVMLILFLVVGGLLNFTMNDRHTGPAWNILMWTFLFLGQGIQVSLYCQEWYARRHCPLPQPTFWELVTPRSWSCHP
Description: The enzyme ACAT was prepared by the method of Heider et al. described in Journal of Lipid Research, Vol. 24, page 1127 (1982), from the mucosal microsome fraction of the small intestine of male, 6-week old Sprague-Dawley rats which had been fasted for 20 hours.
ACAT activity was calculated by the method of Helgerud et al. described in Journal of Lipid Research, Vol. 22, page 271 (1981), namely, by measuring the amount of the labeled cholesterol ester produced from [1^14 C] oleoyl-CoA and endogenous cholesterol.
Inhibition rates (%) of the production of the labeled cholesterol ester wherein 10^-6 M or 10^-8 M of test compounds were added are shown as an index of ACAT inhibitory activity in Table 1.

inhibition at 1 µM [%] | SMILES
99 | Cc1ccccc1-c1c(NC(=O)Nc2ccc(F)cc2F)c(=O)oc2ccc(Cl)cc12 [Example 1, N-[6-chloro-4-(2-methylphenyl)-2-oxo-2H-1-benzopyran-3-yl]-N'-(2,4-difluorophenyl) urea]
99 | Cc1ccccc1-c1c(NC(=O)Nc2ccc(F)cc2F)c(=O)oc2ccc(C(C)C)cc12 [Example 2, N-(2,4-difluorophenyl)-N'-[6-isopropyl-4-(2-methylphenyl)-2-oxo-2H-1-benzopyran-3-yl] urea]
99.2 | Cc1cc2oc(=O)c(NC(=O)Nc3ccc(F)cc3F)c(-c3ccccc3C)c2cc1C [Example 3, N-(2,4-difluorophenyl)-N'-[4-(2-methylphenyl)-6,7-dimethyl-2-oxo-2H-1-benzopyran-3-yl] urea]
84.8 | Cc1cc2oc(=O)c(NC(=O)Nc3cccc(C(F)(F)F)c3)c(-c3ccccc3C)c2cc1Cl [Example 20, N-[6-chloro-7-methyl-4-(2-methylphenyl)-2-oxo-2H-1-benzopyran-3-yl]-N'-(3-trifluoromethylphenyl) urea]
97 | Cc1cc2sc(=O)c(NC(=O)Nc3ccc(F)cc3F)c(-c3ccccc3C)c2cc1Cl [Example 22, N-[6-chloro-7-methyl-4-(2-methylphenyl)-2-oxo-2H-1-thiobenzopyran-3-y-1)-N'-(2,4-difluorophenyl) urea]
95.4 | Cc1cc2oc(=O)c(NC(=O)c3ccc(F)cc3F)c(-c3ccccc3C)c2cc1Cl [Example 29, 6-chloro-3-(2,4-difluorobenzoylamino)-7-methyl-4-(2-methylphenyl)-2H-1-benzopyran-2-one]
90.2 | CC(C)c1ccc2oc(=O)c(NC(=O)Nc3ccc(F)cc3F)c(-c3ccc(F)cc3)c2c1 [Example 30, N-(2,4-difluorophenyl)-N'-[4-(4-fluorophenyl)-6-isopropyl-2-oxo-2H-1-benzopyran-3-yl] urea]

SMILES | inhibition at 1 µM [%]
COc1cc(C=CC(=O)Nc2c(-c3ccccc3C)c3cc(Cl)c(C)cc3oc2=O)cc(OC)c1OC(C)=O [Example 19, 3-(4-acetoxy-3,5-dimethoxycinnamoylamino)-6-chloro-7-methyl-4-(2-methylphenyl)-2H-1-benzopyran-2-one] | 92.3
COc1cc(NC(=O)Nc2c(-c3ccccc3Cl)c3cc(C)ccc3oc2=O)cc(OC)c1OC(C)=O [Example 24, N-(4-acetoxy-3,5-dimethoxyphenyl)-N'-[4-(2-chlorophenyl)-6-methyl-2-oxo-2H-1-benzopyran-3-yl] urea] | 98.6
COc1cc(NC(=O)Nc2c(-c3ccccc3C)c3cc(C)c(C)cc3oc2=O)cc(OC)c1OC(C)=O [Example 25, N-(4-acetoxy-3,5-dimethoxyphenyl)-N'-[6,7-dimethyl-4-(2-methylphenyl)-2-oxo-2H-1-benzopyran-3-yl]urea] | 98.8
COc1cc(NC(=O)Nc2c(-c3ccccc3C)c3cc(Cl)c(C)cc3oc2=O)cc(OC)c1OC(C)=O [Example 26, N-(4-acetoxy-3,5-dimethoxyphenyl)-N,-[6-chloro-7-methyl-4-(2-methylphenyl)-2-oxo-2H-1-benzopyran-3-yl]urea] | 98.5
CC(=O)Oc1c(C)cc(NC(=O)Nc2c(-c3ccccc3C)c3cc(Cl)c(C)cc3oc2=O)cc1C [Example 27, N-(4-acetoxy-3,5-dimethylphenyl)-N'-[6-chloro-7-methyl-4-(2-methylphenyl)-2-oxo-2H-1-benzopyran-3-yl]urea] | 99.1

same assay, conditions: 10^-8 M; mucosal microsome fraction of small intestine of male 6-week old fasted Sprague-Dawley rats; labeled cholesterol ester from [1^14 C] oleoyl-CoA; read-out: ACAT Inhibition Rate (%) 10^-8 M

inhibition at 0.01 µM [%] | SMILES
69.7 | Cc1cc2oc(=O)c(NC(=O)Nc3ccc(Cl)cc3)c(-c3ccccc3C)c2cc1C [Example 4, N-(4-chlorophenyl)-N'-[6,7-dimethyl-4-(2-methylphenyl)-2-oxo-2-H-1-benzopyran-3-yl] urea]
45.9 | CCc1ccc2oc(=O)c(NC(=O)Nc3ccc(F)cc3F)c(-c3ccccc3C)c2c1 [Example 6, N-[6-ethyl-4-(2-methylphenyl)-2-oxo-2H-1-benzopyran-3-yl]-N'-(2,4-difluorophenyl) urea]
81.7 | Cc1cc2oc(=O)c(NC(=O)Nc3ccc(F)cc3F)c(-c3ccccc3C)c2cc1Cl [Example 7, N-[6-chloro-7-methyl-4-(2-methylphenyl)-2-oxo-2H-1-benzopyran-3-yl)-N'-(2,4-difuorophenyl) urea]
86.7 | Cc1cc2oc(=O)c(NC(=O)Nc3ccc(F)cc3F)c(-c3ccccc3Cl)c2cc1C [Example 11]
42.7 | Cc1ccc2oc(=O)c(NC(=O)Nc3ccc(F)cc3F)c(-c3ccccc3C)c2c1 [Example 16, N-[2,4-difluorophenyl)-N'-[6-methyl-4-(2-methylphenyl)-2-oxo-2H-1-benzopyran-3-yl) urea]
84.2 | Cc1cc2c(-c3ccccc3C)c(NC(=O)Nc3ccc(F)cc3F)c(=O)oc2cc1Cl [Example 17, N-[7-chloro-6-methyl-4-(2-methylphenyl)-3-oxo-2H-1-benzopyran-3-yl)-N'-(2,4-difluorophenyl) urea]
56.1 | Cc1ccc2oc(=O)c(NC(=O)Nc3ccc(F)cc3F)c(-c3ccccc3Cl)c2c1 [Example 18, N-[4-(2-chlorophenyl)-6-methyl-2-oxo-2H-1-benzopyran-3-yl)-N'-(2,4-difluorophenyl) urea]
34.3 | Cc1cc2oc(=O)c(NC(=O)Cc3ccc(F)cc3F)c(-c3ccccc3C)c2cc1Cl [Example 28, 6-chloro-3-(2,4-difluorophenylacetylamino)-7-methyl-4-(2-methylphenyl)-2H-1-benzopyran-2-one]
